According to article PMC12683216, “Using High‐Throughput Screening to Identify Crosslinking Peptides That Control Cell‐Mediated Matrix Degradation” (Advanced Healthcare Materials, 2025):
Read-outs that look alike come from different tables or passages of the source. Where a SMILES comes first, the peptide text is derived from it. [ ]: non-standard residue; d: D form. βAla = NCCC(=O)O

Legend:
[1] = Soluble peptide degradation, Media condition (cell-conditioned media, LC-MS); type: in vitro ADME, human; conditions: for remaining at 24 h, 50 µM / remaining at 24 h: human
Method in brief: (§1)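 Pooled peptide library added to medium conditioned by hUVECs or hMSCs with cells removed. Fraction remaining after 24 h measured by LC-MS (positive-ion ESI). Value is peptide peak area relative to 50 µM non-degradable βFβA6 internal standard.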

hMSCs = experiment: Soluble peptide degradation, Cells condition (LC-MS); type: in vitro ADME, human; conditions: LC-MS
Method in brief: (§2)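 Pooled synthetic TAILS-derived peptides added to hUVEC or hMSC cultures (Cells) or cell-free conditioned media (Media); MMP-14 inhibitor NSC 405 020 at 10 µM final. Samples taken at 0 and 24 h, acidified, analysed by LC-MS; peak areas normalised to 50 µM βFβA6 internal standard, 24 h/0 h gives fraction remaining.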

MMP-14 [2] = experiment: as above; type: in vitro ADME, human; conditions: human
Method in brief: as §2

hUVECs = experiment: as above; type: in vitro ADME, human; conditions: Figure 3B heatmap; split-and-pool libraries KLVADX1X2ASAE in media on hUVECs; 24 h; LC-MS, ratio to βFβA6; N = 2
Method in brief: as §2

[3] = as above; type: in vitro ADME, human; conditions: human; for remaining at 24 h, 50 µM: Figure 3C, individually synthesized soluble peptide, N = 6
Method in brief: as §2

[4] = Soluble peptide degradation, Media condition (cell-conditioned media, LC-MS); type: in vitro ADME, human
Method in brief: as §1

MMP-14 [5] = test system: T1, MMP-14; experiment: Peptide degradation with added exogenous recombinant MMP-14 (LC-MS); type: in vitro ADME; conditions: human, cells or culture medium
T1 construct: purchased antibodies.com
Method: To verify that MMP‐14 can degrade the KLVAD‐LM and PanMMP peptides, recombinant MMP‐14 was added to the different peptides, both in PBS and in the Cell and Media culture conditions (Figure 7 ). Peptides were incubated under three conditions: in fresh cell culture media (“Blank”), in media with cells present (“Cells”), and in cell‐conditioned media (“Media”). This was done for both hMSCs and hUVECs, and was also done with and without the addition of exogenous MMP.
The extent of peptide degradation was quantified for samples both with and without the addition of exogenous MMP‐14. […] Error bars indicate ± standard deviation, N = 3 with technical triplicates.
hUVECs (75000 per well) or hMSCs (36000 per well) were seeded into a 48 well plate, and 500 µL media was added to the wells. […] The peptide libraries were dissolved at a stock solution of 10 mM total peptide content. For libraries containing 38 peptides, 95 µL of the stock solution was added to each well; for libraries with 19 peptides, 47.5 µL was added to each well, and media was taken at 0 and 24 h. Add 4 µL of acetic acid to all collected media in the LC‐MS plates and store them in a −80 °C freezer to prevent further proteolytic degradation. From each sample, 10 µL of crude solution was introduced by the LC‐MS through a Thermo Scientific Vanquish LC System (Thermo Fisher Scientific), which outputted to a Thermo Scientific LTQ XL Linear Ion Trap Mass Spectrometer (Thermo Fisher Scientific). The sampled mixture was trapped on a column (ProntoSIL C18 AQ, 120 Å, 3 µm, 2.0 x 50 mm HPLC Column, PN 0502F184PS030, MAC‐MOD Analytical Inc.). The samples were loaded onto the column with a solvent containing acetonitrile/water, 5:95 (v/v) containing 1% acetic acid at a flow rate of 300 µL min^−1 and held for 1 min. The sample was then eluted from the column with a linear gradient of 5–40% Solvent B (1% acetic acid in acetonitrile) at the same flow rate for 5 min. This was followed by a 1 min ramp up to 100% Solvent B, where it was re‐equilibrated with Solvent A (1% acetic acid) to 5% solvent B over the course of 1 min and held there for 2 min. The column temperature was kept at a constant 29 °C, and the mass spectrometer was operated in positive ion mode. Using a Heated ESI, the Source Voltage was set to 4.1 kV, and the capillary temperature was 350 °C. For non‐library degradation studies, 2.5 µL of 10 mM peptide stock solution for each peptide was added.
To assess the activity of the conditioned media, the media were divided into two equal portions. One portion was used for a standard degradation study, while the other was cultured for an additional 24 h before the PanMMP and KLVADLMASAE were added. After 24 h of incubation, the media were collected for further analysis. To assess the impact of recombinant MMP‐14 on PanMMP and KLVADLMASAE, recombinant MMP‐14 (antibodies.com) was dissolved in the media at a concentration of 0.5 nM. The remaining steps followed the standard degradation study protocol.
For all degradation studies using soluble peptides, a non‐proteolytically degradable NH2‐βFβAβAβAβAβAβA‐amide (βFβA6) peptide, where βF is β‐phenylalanine and βA is β‐alanine, was added at a 50 µM concentration and used as an internal standard. Peptide degradation ratios were measured by LC‐MS and analyzed by Xcalibur. The relative concentrations of the peptide were calculated by the ratio of the peak area of the peptide and the peak area of βFβA6.

[6] = with NSC 405 020 (MMP-14 inhibitor), Figure 3C, 50 µM peptide, media on hMSCs with MMP-14 inhibitor NSC 405 020 10 µM, 24 h, LC-MS, N = 6, read-out: Fraction of peptide remaining after 24 hours: hMSC +Inhibitor
[7] = with NSC 405 020 (MMP-14 inhibitor), Figure 3C, 50 µM peptide, media on hUVECs with MMP-14 inhibitor NSC 405 020 10 µM, 24 h, LC-MS, N = 6, read-out: Fraction of peptide remaining after 24 hours: hUVEC +Inhibitor
[8] = hUVECs in culture with fresh media (Cells condition), media on hUVECs, 24 h, LC-MS, ratio to βFβA6, read-out: Fraction of peptide remaining after 24 hours: hUVEC Cells
[9] = human, hMSC-conditioned media without cells (Media condition), Figure 3B heatmap, split-and-pool libraries KLVADX1X2ASAE in hMSC-conditioned media without cells, 24 h, LC-MS, ratio to βFβA6, N = 2, read-out: Fraction of peptide remaining after 24 hours: hMSC Media

CC(=O)NCCC(=O)N[C@@H](CCCCN)C(=O)N[C@@H](CC(C)C)C(=O)N[C@H](C(=O)N[C@@H](C)C(=O)N[C@@H](CC(=O)O)C(=O)N[C@@H](CC(N)=O)C(=O)N[C@@H](Cc1ccc(O)cc1)C(=O)N[C@@H](C)C(=O)N[C@@H](CO)C(=O)N[C@@H](C)C(=O)N[C@@H](CCC(=O)O)C(=O)NCCC(N)=O)C(C)C [KLVAD-NY] (Ac-[βAla]KLVADNYASAE[βAla]-NH2)
degradation in Media condition ([1]; Figure 2B screen, hUVEC-conditioned media, 24 h, LC-MS): less than 3% | Fraction of peptide remaining after 24 hours: hUVEC Media ([1]; Figure 3B heatmap, split-and-pool libraries KLVADX1X2ASAE in hUVEC-conditioned media without cells, 24 h, LC-MS, ratio to βFβA6, N = 2): 0.98 | remaining at 24 h, 50 µM ([1]; hUVEC-conditioned media without cells (Media condition), Figure 3C, individually synthesized soluble peptide, 50 µM, hUVEC-conditioned media without cells, 24 h, LC-MS, ratio to βFβA6, N = 6, read-out: Fraction of peptide remaining after 24 hours: hUVEC Media): 102% | remaining at 24 h ([1]; Figure 2B heatmap, pooled TAILS-derived soluble peptides in 24 h hUVEC-conditioned media without cells, 24 h, LC-MS, ratio to βFβA6 internal standard, 24 h / 0 h, N = 5, read-out: Fraction of peptide remaining at 24 hours: hUVEC Media): 100% | remaining after 24 h in the Cells condition for hMSCs (hMSCs; Figure 2B screen, 24 h): 70% | peptide remaining after 24 h, Cells condition, hMSCs (hMSCs; Figure 3C, 50 µM soluble peptide, N = 6): 78% | remaining at 24 h, 50 µM (MMP-14 [2]; [6]): 87% | remaining at 24 h, 50 µM (MMP-14 [2]; [7]): 98% | Fraction of peptide remaining after 24 hours: hUVEC Cells (hUVECs): 0.91 | remaining at 24 h ([3]; hMSCs in culture with fresh media (Cells condition), Figure 2B heatmap, pooled TAILS-derived soluble peptides (Ac-βAla N-terminus, βAla-amide C-terminus) in media on hMSCs (36000 per well, 48 well plate, 500 µL), 24 h, LC-MS, ratio to βFβA6 internal standard, 24 h / 0 h, N = 5, read-out: Fraction of peptide remaining at 24 hours: hMSC Cells): 70% | remaining at 24 h, 50 µM ([3]; hMSCs in culture with fresh media (Cells condition), media on hMSCs, 24 h, LC-MS, ratio to βFβA6, read-out: Fraction of peptide remaining after 24 hours: hMSC Cells): 78% | remaining at 24 h ([3]; hUVECs in culture with fresh media (Cells condition), Figure 2B heatmap, pooled TAILS-derived soluble peptides in media on hUVECs (75000 per well, 48 well plate, 500 µL), 24 h, LC-MS, ratio to βFβA6 internal standard, 24 h / 0 h, N = 5, read-out: Fraction of peptide remaining at 24 hours: hUVEC Cells): 92% | remaining at 24 h, 50 µM [3, 8]: 96% | Fraction of peptide remaining after 24 hours: hMSC Media ([4]; Figure 3C, individually synthesized soluble peptide, 50 µM, hMSC-conditioned media without cells, 24 h, LC-MS, ratio to βFβA6, N = 6): 0.92 | remaining at 24 h [4, 9]: 84% | remaining at 24 h ([4]; human, Figure 2B heatmap, pooled TAILS-derived soluble peptides in 24 h hMSC-conditioned media without cells, 24 h, LC-MS, ratio to βFβA6 internal standard, 24 h / 0 h, N = 5, read-out: Fraction of peptide remaining at 24 hours: hMSC Media): 97% | metabolised at 24 h ([4]; human, Figure 2B screen, hMSC-conditioned media, 24 h, LC-MS): < 3%

CC(=O)NCCC(=O)N[C@@H](CCCCN)C(=O)N[C@@H](CC(C)C)C(=O)N[C@H](C(=O)N[C@@H](C)C(=O)N[C@@H](CC(=O)O)C(=O)N1CCC[C@H]1C(=O)N[C@@H](Cc1ccc(O)cc1)C(=O)N[C@@H](C)C(=O)N[C@@H](CO)C(=O)N[C@@H](C)C(=O)N[C@@H](CCC(=O)O)C(=O)NCCC(N)=O)C(C)C [KLVAD-PY] (Ac-[βAla]KLVADPYASAE[βAla]-NH2)
Fraction of peptide remaining after 24 hours: hUVEC Media ([1]; Figure 3C, individually synthesized soluble peptide, 50 µM, hUVEC-conditioned media without cells, 24 h, LC-MS, ratio to βFβA6, N = 6): 1.11 | remaining at 24 h ([1]; hUVEC-conditioned media without cells (Media condition), Figure 3B heatmap, split-and-pool libraries KLVADX1X2ASAE in hUVEC-conditioned media without cells, 24 h, LC-MS, ratio to βFβA6, N = 2, read-out: Fraction of peptide remaining after 24 hours: hUVEC Media): 118% | Fraction of peptide remaining after 24 hours: hMSC Cells (hMSCs; Figure 3C, individually synthesized soluble peptide, 50 µM, media on hMSCs, 24 h, ratio to βFβA6, N = 6): 0.52 | remaining at 24 h, 50 µM (MMP-14 [2]; [6]): 89% | remaining at 24 h, 50 µM (MMP-14 [2]; [7]): 100% | remaining at 24 h ([3]; hMSCs in culture with fresh media (Cells condition), Figure 3B heatmap, split-and-pool libraries KLVADX1X2ASAE (19 or 38 peptides per library) in media on hMSCs, 24 h, LC-MS, ratio to βFβA6, N = 2, read-out: Fraction of peptide remaining after 24 hours: hMSC Cells): 56% | remaining at 24 h ([3]; hUVECs in culture with fresh media (Cells condition), Figure 3B heatmap, split-and-pool libraries KLVADX1X2ASAE in media on hUVECs, 24 h, LC-MS, ratio to βFβA6, N = 2, read-out: Fraction of peptide remaining after 24 hours: hUVEC Cells): 94% | remaining at 24 h, 50 µM [3, 8]: 88% | remaining at 24 h [4, 9]: 81% | remaining at 24 h, 50 µM ([4]; human, hMSC-conditioned media without cells (Media condition), Figure 3C, individually synthesized soluble peptide, 50 µM, hMSC-conditioned media without cells, 24 h, LC-MS, ratio to βFβA6, N = 6, read-out: Fraction of peptide remaining after 24 hours: hMSC Media): 96%

CSCC[C@H](NC(=O)[C@H](CC(C)C)NC(=O)[C@H](CC(=O)O)NC(=O)[C@H](C)NC(=O)[C@@H](NC(=O)[C@H](CC(C)C)NC(=O)[C@H](CCCCN)NC(=O)CCNC(C)=O)C(C)C)C(=O)N[C@@H](C)C(=O)N[C@@H](CO)C(=O)N[C@@H](C)C(=O)N[C@@H](CCC(=O)O)C(=O)NCCC(N)=O [KLVAD-LM] (Ac-[βAla]KLVADLMASAE[βAla]-NH2)
degraded across all Media conditions [1]: less than 10% | remaining at 24 h, 50 µM ([1]; cells or culture medium): 93% | remaining at 24 h, 50 µM (MMP-14 [2]; cells or culture medium): 100% | remaining at 24 h, 50 µM (MMP-14 [2]; cells or culture medium, Fraction of peptide remaining after 24 hours: hMSC +Inhibitor): 82% | remaining at 24 h ([3]; cells or culture medium): 87% | remaining at 24 h ([3]; cells or culture medium, Fraction of peptide remaining after 24 hours: hMSC Cells): 39% | degraded across all Media conditions [4]: less than 10% | remaining at 24 h, 50 µM ([4]; human, cells or culture medium): 97% | remaining at 24 h, 50 µM (MMP-14 [5]; peptide remaining in hMSC conditioned media with added MMP‐14): 76% | remaining at 24 h, 50 µM (MMP-14 [5]; peptide remaining in hUVEC conditioned media with added MMP‐14): 69%
